Values after ≈ are worked out from the molar mass of the structure shown.
Columns and labels:
[1] = Metabolic stability in vitro in microsomes; assay type: in vitro ADME; conditions: in comparison with 2-(3,5-bis-trifluoromethyl-phenyl)-N-methyl-N-[6-(4-methyl-piperazin-1-yl)-4-o-tolyl-pyridin-3-yl]-isobutyramide
human NK1 receptors = target: T1, human NK1 receptors (Homo sapiens, UniProt P25103); assay: NK1 receptor binding, [3H]substance P displacement; conditions: human NK1 receptor in CHO cells, [3H]substance P 0.6 nM; read-out: affinity to the NK-1 receptor, given as pKi (converted)
T1 construct: expressed in transfected cells; host or cells: CHO cells infected using the Semliki virus expression system; membrane suspension used
Protocol: The compounds were investigated in accordance with the tests given hereinafter. The affinity of test compounds for the NK1 receptor was evaluated at human NK1 receptors in CHO cells infected with the human NK1 receptor (using the Semliki virus expression system) and radiolabelled with [^3H]substance P (final concentration 0.6 nM). Binding assays were performed in HEPES buffer (50 mM, pH 7.4) containing BSA (0.04%) leupeptin (8 μg/ml), MnCl2 (3 mM) and phosphoramidon (2 μM). Binding assays consisted of 250 μl of membrane suspension (1.25×10^5 cells/assay tube), […] of buffer of displacing agent and 125 μl of [^3H]substance P. Displacement curves were determined with at least seven concentrations of the compound. The assay tubes were incubated for 60 min at room temperature after which time the tube contents were rapidly filtered under vacuum through GF/C filters presoaked for 60 min with PEI (0.3%) with 2×2 ml washes of HEPES buffer (50 mM, pH 7.4). The radioactivity retained on the filters was measured by scintillation counting. All assays were performed in triplicate in at least 2 separate experiments.
The affinity to the NK-1 receptor, given as pKi is described in the table below: […]

[2] = PAMPA PSR4p permeability assay; assay type: in vitro ADME; conditions: for Acceptor (sample distribution) / Donor (sample distribution) / Membrane (sample distribution) / PE (permeation constant) / PE class: pH 6.5, DMSO stock solution
Protocol: The permeability has been searched by the PAMPA PSR4p assay, which is based on 96 well microplates. The permeability is measured using a “sandwich” construction. A filterplate is coated with phospholipids (membrane) and placed into a donor plate containing a drug/buffer solution. Finally the filterplate is filled with buffer solution (acceptor). The donor concentration is measured at t-start (reference) and compared with the donor and acceptor concentration after a certain time t-end.
The following setup is used for the PAMPA PSR4p assay: • Donor: 0.05 M MOPSO buffer at ph 6.5+0.5% (w/v) Glyco cholic acid • Membrane: 10% (w/v) Egg lecithin+0.5% (w/v) cholesterol in dodecane • Acceptor: 0.05 MOPSO buffer at pH 6.5
The liquid handling is done with a TECAN RSP150 pipetting robot. The drug analysis is based on UV spectroscopy. All samples are transferred into 96 well UV plates. A SpectralMax 190 UV plate reader is used to collect the UV spectras.
The pipetting steps can be divided into four parts: 1. Dilution of stock solutions and filtration, 2. Preparation of reference and PAMPA PSR4p sandwich, 3. Transfer of acceptor solutions into UV plate, 4. Transfer of donor solutions into UV plate. The PAMPA PSR4p assay contains information about the sample precipitation in the donor buffer UV spectras of the sample, read at the start of the assay (t-start: reference) and at the end (t-end: donor, acceptor) allow the determination of a sample distribution in donor, membrane and acceptor. Because of the known permeation time (t-end, t-start) a permeation constant can be retrieved.

Equilibrium solubility = assay type: physicochemical; conditions: for solubility at 24 h: 21 °C, aqueous buffer, thermodynamic from solid
Protocol: Method Description Equilibrium Solubility
[…] A known amount of drug, generally 1–2 mg, was added to 250 μl of buffer (glass tubes), and the resulting suspension was stirred for 2 h (21° C.), after 5 minutes of sonification. The pH of the solution was checked and corrected if necessary (in case of pH correction, the solution was once more shaken and equilibrated), and after 24 h the suspension was filtered through a 0.65-μm filter. The filtered solution was then assayed by HPLC to determine the drug concentration. In cases where the drug had completely dissolved in the buffer, the value for equilibrium solubility was assumed to be higher than the value determined by HPLC and was reported as such. Stock solutions (˜1 mg/ml) in DMSO were used in the preparation of a calibration curve in the related buffer using HPLC analytics.

[3] = buffer 0.05 M Phosphate, pH 6.5 (EP 1 035 115) / pH 6.7 (Compound I-2)

T1 sequence (P25103 whole entry): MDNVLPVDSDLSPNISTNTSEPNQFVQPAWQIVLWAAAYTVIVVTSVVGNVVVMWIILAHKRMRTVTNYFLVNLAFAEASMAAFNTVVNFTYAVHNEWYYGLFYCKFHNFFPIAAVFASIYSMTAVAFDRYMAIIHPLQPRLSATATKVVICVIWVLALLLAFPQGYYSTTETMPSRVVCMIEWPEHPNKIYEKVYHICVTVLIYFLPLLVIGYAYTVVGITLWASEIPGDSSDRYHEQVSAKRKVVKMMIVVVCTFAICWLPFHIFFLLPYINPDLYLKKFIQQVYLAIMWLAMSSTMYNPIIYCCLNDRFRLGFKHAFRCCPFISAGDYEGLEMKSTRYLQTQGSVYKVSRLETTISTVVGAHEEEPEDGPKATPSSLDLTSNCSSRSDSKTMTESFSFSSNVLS

Row | Structure (SMILES) | metabolic stability in vitro in microsomes [1] | Ki (human NK1 receptors) [nM] | permeation speed compared with the corresponding compound of EP 1 035 115 [2] | Acceptor (sample distribution) [2] [%] | Donor (sample distribution) [2] [%] | Membrane (sample distribution) [2] [%] | PE (permeation constant) [2] [cm/s × 10^−6] | PE class [2] | solubility, fold higher than the compared compound disclosed in EP 1035 115 (Equilibrium solubility) [fold] | solubility at 24 h (Equilibrium solubility; [3]) [µg/mL] | solubility at 24 h (Equilibrium solubility; buffer 0.15 M Citrate, pH 4.1) [µg/mL]
1 | Cc1ccccc1-c1cc(N2CC[N+](C)([O-])CC2)ncc1N(C)C(=O)C(C)(C)c1cc(C(F)(F)F)cc(C(F)(F)F)c1 [Compound I-1, 2-(3,5-Bis-trifluoromethyl-phenyl)-N-methyl-N-[6-(4-methyl-4-oxy-piperazin-1-yl)-4-o-tolyl-pyridin-3-yl]-isobutyramide] | higher metabolic stability | 1 |  |  |  |  |  |  |  |  | 
2 | CN1CCN(c2cc(-c3ccccc3CO)c(N(C)C(=O)C(C)(C)c3cc(C(F)(F)F)cc(C(F)(F)F)c3)cn2)CC1 [Compound I-2, 2-(3,5-Bis-trifluoromethyl-phenyl)-N-[4-(2-hydroxymethyl-phenyl)-6-(4-methyl-piperazin-1-yl)-pyridin-3-yl]-N-methyl-isobutyramide] |  | 0.794 | three times higher | 3 | 26 | 72 | 1.81 | high | 8 | 8 (≈ 13.5 µM) | 200 (≈ 336 µM)
3 | Cc1ccccc1-c1cc(N2CCN(C)CC2)ncc1N(C)C(=O)C(C)(C)c1cc(C(F)(F)F)cc(C(F)(F)F)c1 [EP 1 035 115, 2-(3,5-bis-trifluoromethyl-phenyl)-N-methyl-N-[6-(4-methyl-piperazin-1-yl)-4-o-tolyl-pyridin-3-yl]-isobutyramide, reference compound] |  |  |  | 2 | 50 | 49 | 0.56 | medium |  | 1 (≈ 1.73 µM) | 26 (≈ 44.9 µM)
